Results: US7923573B2, “Benzene compound having 2 or more substituents” (Daiichi Sankyo Company, Limited, priority 2004, dated 2011)

molecular target: T1, LXRα (Homo sapiens, UniProt Q13133); assay: Co-transfection assay (LXR/LXRE luciferase reporter), LXRα; type: cell-based; conditions: CV-1 cells transfected with hLXRα and LXRE luciferase reporter; agonist activity; read-out: EC50 value against LXRα
T1 construct: expressed in transfected cells; host or cells: CV-1 African green monkey kidney cells (ATCC CCL-70)
T1 sequence (Q13133 1-447): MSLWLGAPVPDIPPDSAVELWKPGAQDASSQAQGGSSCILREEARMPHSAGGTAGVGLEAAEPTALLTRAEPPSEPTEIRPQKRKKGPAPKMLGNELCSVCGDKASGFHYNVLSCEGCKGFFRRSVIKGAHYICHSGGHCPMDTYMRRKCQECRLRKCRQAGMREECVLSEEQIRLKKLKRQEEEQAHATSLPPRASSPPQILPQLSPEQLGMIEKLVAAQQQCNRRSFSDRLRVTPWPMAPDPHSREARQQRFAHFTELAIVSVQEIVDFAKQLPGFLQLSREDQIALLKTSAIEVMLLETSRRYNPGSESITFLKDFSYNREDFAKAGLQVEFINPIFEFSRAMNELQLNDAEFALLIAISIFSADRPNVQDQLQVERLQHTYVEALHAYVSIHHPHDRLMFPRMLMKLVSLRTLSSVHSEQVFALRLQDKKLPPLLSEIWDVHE
T1 sequence (P19793 1-462 partner): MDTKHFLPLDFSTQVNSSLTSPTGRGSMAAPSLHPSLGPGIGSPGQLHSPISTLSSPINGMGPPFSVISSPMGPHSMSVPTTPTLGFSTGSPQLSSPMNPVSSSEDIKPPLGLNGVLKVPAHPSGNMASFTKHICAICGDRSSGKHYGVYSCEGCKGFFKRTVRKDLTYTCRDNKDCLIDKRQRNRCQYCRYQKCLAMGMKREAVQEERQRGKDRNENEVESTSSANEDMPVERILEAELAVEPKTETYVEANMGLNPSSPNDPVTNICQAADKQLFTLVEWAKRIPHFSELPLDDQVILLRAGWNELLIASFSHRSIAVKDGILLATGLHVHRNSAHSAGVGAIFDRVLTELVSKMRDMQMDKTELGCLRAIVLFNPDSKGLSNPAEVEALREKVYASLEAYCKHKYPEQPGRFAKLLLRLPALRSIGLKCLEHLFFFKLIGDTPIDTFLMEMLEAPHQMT
Source text: The effect of activating or inhibiting LXR transcription activity of a test compound can be measured by a co-transfection which is a cell-based assay. LXR is known to function by forming a heterodimer with RXR. In a co-transfection assay, LXR and RXR expression plasmids and a luciferase reporter expression plasmid containing three copies of an LXR-RXR heterodimer-responding DNA sequence are first inserted into mammalian cells by transient transfection. Next, when the transfected cells are treated with a test compound having LXR agonist activity, the transcription activating effect of LXR is enhanced, and the LXR agonist activity of a test compound can be measured as an increase in luciferase activity.
(1) CV-1 African green monkey kidney cells (ATCC CCL-70)
(2) Co-transfection expression plasmid, pcDNA-hLXRα or pcDNA-hLXRβ, reporter (LXREx3-pTAL-Luc Vector)
(3) Lipofect AMINE, Plus Reagent (Invitrogen) transfection reagent
(4) Cell lysis buffer [Passive lysis buffer; 5× (Promega Corporation) is diluted with distilled water]
(5) Luciferase assay reagent (Promega Corporation)
(6) Medium (Dulbecco's Modified Eagle Medium (Gibco) 500 ml, Gentamicin Reagent Solution (Gibco) 2.5 ml, 2 mM L-Gluta Max I Supplement (Gibco) 5.0 ml, MEM Sodium pyruvate solution (Gibco) 5.0 ml, penicillin-streptomycin (Gibco) 5.0 ml, charcoal/dextran-treated FBS (HyClone) 50 ml) (7) OPTI-MEM I Reduced-Serum Medium (Gibco) Adjustment of Screening Reagents
The aforementioned CV-1 cells were disseminated into a 96-well assay plate (Costar 3610) to a concentration of 2×10^4 cells/[…]/well followed by incubating overnight at 37° C.
DNA transfection was carried out according to the protocol provided with the transfection reagent. 10 μl of OPTI-MEM I Reduced-Serum Medium (Gibco) and 0.5 μl of Lipofect AMINE (Invitrogen) were added to two 50 ml tubes followed by shaking the mixed solutions to obtain Solution A. The substances of (1) below were respectively added to each tube followed by shaking the mixed solutions and allowing to stand undisturbed for 15 minutes to obtain Solution B. In addition, Solution C was obtained by carrying out the same procedure using the substances of (2) below.
(1) 10 μl of OPTI-MEM I Reduced-Serum Medium, 1 μl of Plus Reagent (Invitrogen) and 0.1 μg of DNA [PCMX-LXRα (33 ng) and LXRE (66 ng)];
(2) 10 μl of OPTI-MEM I Reduced-Serum Medium, 1 μl of Plus Reagent (Invitrogen) and 0.1 μg of DNA [PCMX-LXRβ (33 ng) and LXRE (66 ng)].
The entire amount of the aforementioned Solution A was respectively added to the aforementioned Solution B followed by shaking and allowing to stand undisturbed for 15 minutes to obtain LXRα solution. In addition, LXRβ solution was obtained by carrying out the same procedure using the aforementioned Solutions C and A.
After removing the medium from the 96-well assay plate used to Incubate the CV-1 cells as described above by decanting, and completely removing any moisture, 50 μl/well of OPTI-MEM I Reduced-Serum Medium were added to each well followed by addition of the aforementioned LXRα solution or LXRβ solution to each well at 20 μl/well and incubating for 3 hours at 37° C.
Three hours later, 20% charcoal FBS-DMEM was added to each well at 70 μl/well. FBS-DMEM used for the medium was prepared by mixing charcoal and dextran-treated FBS at a ratio of 9:1. Next, test compounds adjusted to concentrations of 1 mM, 0.3 mM, 0.1 mM, 30 μM, 10 μM, 3 μM, 1 μM or 0 μM with DMSO were added to each well at 1.4 μl/well. […]

EC50, ≤ 5 µM:
CC(C)(C)OC(=O)c1c(COc2ccc(-c3ccc(CC(=O)O)cc3)c(F)c2)ccc(C(F)(F)F)c1O [Example 14, (4′-{[2-(tert-Butoxycarbonyl)-3-hydroxy-4-(trifluoromethyl)benzyl]oxy}-2′-fluoro-1,1′-biphenyl-4-yl)acetic acid]
CC(C)(C)OC(=O)c1c(COc2ccc(-c3ccc(C4(C(=O)O)CC4)cc3)cc2)ccc(C(F)(F)F)c1O [Example 15, 1-(4′-{[2-(tert-Butoxycarbonyl)-3-hydroxy-4-(trifluoromethyl)benzyl]oxy}-1,1′-biphenyl-4-yl)cyclopropanecarboxylic acid]
CN(C)C(=O)Cc1ccc(-c2ccc(OCc3ccc(C(F)(F)F)c(O)c3C(=O)OC(C)(C)C)cc2)cc1 [Example 49, tert-Butyl 6-[({4′-[2-(dimethylamino)-2-oxoethyl]-1,1′-biphenyl-4-yl}oxy)methyl]-2-hydroxy-3-(trifluoromethyl)benzoate]
CNC(=O)Cc1ccc(-c2ccc(OCc3ccc(C(F)(F)F)c(O)c3C(=O)OC(C)(C)C)cc2)cc1 [Example 50, tert-Butyl 2-hydroxy-6-[({4′-[2-(methylamino)-2-oxoethyl]-1,1′-biphenyl-4-yl}oxy)methyl]-3-trifluoromethylbenzoate]
CC(C)(C)OC(=O)c1c(COc2ccc(-c3cc(CC(=O)O)ccc3F)cc2)ccc(C(F)(F)F)c1O [Example 52, (4′-{[2-(tert-Butoxycarbonyl)-3-hydroxy-4-(trifluoromethyl)benzyl]oxy}-6-fluoro-1,1′-biphenyl-3-yl)acetic acid]
